Test results as given in EP3046573B1, “AMYLIN ANALOGUES” (Zealand Pharma A/S, priority 2013, dated 2015).
Where two headings read alike, the source gives them in different places. Marks after values point to notes of the source that are not given here. Numbered stars: 1 amine (or outer) side, 2 acyl side, 3 side chain; on linkers, the order of the positions; unused ones are H or OH. Bridge positions count the residues as written; N and C are the ends. Square brackets hold non-standard residues; d marks the D form. Peptide text beside a SMILES is read from it. * marks the point of attachment. C20 diacid = O=C(O)CCCCCCCCCCCCCCCCCCC(=O)*; γGlu = O=C(O)[C@H](CCC(=O)[*:2])N[*:1]; NMeI = CC[C@H](C)[C@H](NC)C(=O)O; Sar = CNCC(=O)O

What was measured:
[1] = target: T1, human calcitonin receptor (hCTR2) (Homo sapiens, UniProt P30988); test: hCTR2 assay: induction of cAMP (AlphaScreen cAMP Assay kit) in COS7 cells expressing hCTR2; type: cell-based
T1 construct: expressed in transfected cells
T1 sequence (P30988 25-474): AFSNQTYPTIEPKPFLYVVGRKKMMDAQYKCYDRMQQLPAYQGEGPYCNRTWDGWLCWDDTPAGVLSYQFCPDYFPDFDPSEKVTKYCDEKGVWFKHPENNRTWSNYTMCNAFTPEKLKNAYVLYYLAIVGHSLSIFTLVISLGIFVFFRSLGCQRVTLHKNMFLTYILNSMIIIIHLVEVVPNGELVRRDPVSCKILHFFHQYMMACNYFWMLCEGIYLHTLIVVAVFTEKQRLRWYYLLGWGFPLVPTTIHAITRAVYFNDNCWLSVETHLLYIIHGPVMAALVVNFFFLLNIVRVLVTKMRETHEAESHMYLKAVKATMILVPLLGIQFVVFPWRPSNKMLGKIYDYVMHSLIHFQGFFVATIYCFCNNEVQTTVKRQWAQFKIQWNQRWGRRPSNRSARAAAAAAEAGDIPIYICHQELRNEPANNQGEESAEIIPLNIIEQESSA
Outline: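 COS7 stable hCTR2 clone (RAMP-free); peptide dose-response 15 min 37° C in Tyrode pH 7.4 + 100 µM IBMX + 0.1% casein; lysis 10 min RT; AlphaScreen cAMP; 4PL fit.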

[2] = target: T2, human amylin receptor 3 (hAMYR3) consisting of hCTR2 co-expressed with human Receptor Activity Modifying Protein 3 (hRAMP3) (Homo sapiens, UniProt O60896+P30988); test: hAMYR3 assay: induction of cAMP (AlphaScreen cAMP Assay kit) in COS7 cells expressing hAMYR3; type: cell-based
T2 construct: expressed in transfected cells
T2 sequence (P30988 25-474): T1 sequence (P30988 25-474)
T2 sequence (O60896 24-148 partner): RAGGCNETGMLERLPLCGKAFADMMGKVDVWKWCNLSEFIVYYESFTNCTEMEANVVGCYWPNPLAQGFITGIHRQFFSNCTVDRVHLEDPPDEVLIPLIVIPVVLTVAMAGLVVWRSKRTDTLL
Outline: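 Stable COS7 clone co-expressing hCTR2 and hRAMP3, stimulated 15 min at 37° C with increasing peptide in Tyrode buffer pH 7.4 with 100 µM IBMX and 0.1% casein. cAMP measured by AlphaScreen after lysis; EC50 and % efficacy versus pramlintide from 4PL fit.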

[3] = Assessment of physical stability: fibril formation detected with Thioflavin T (ThT), lag-time; type: physicochemical; details: 1 mg/ml peptide, 40 µM ThT, FND = Fibrillation not detected; for Fibrillation lag time (hours) pH 4.0 (Ac): 50 mM acetate buffer pH 4.0, 96 hours at 40°C; for Fibrillation lag time (hours) pH 7.0 (His): 50 mM histidine buffer pH 7.0, 96 hours at 40°C; for Fibrillation lag time (hours) pH 7.0 (Ph): 50 mM phosphate buffer pH 7.0, 96 hours at 40°C
Outline: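 Test peptide at 1 mg/ml with 40 µM ThT in 50 mM phosphate (pH 7.0), 50 mM histidine (pH 7.0) or 50 mM acetate (pH 4.0), in triplicate, 40° C. for 96 h. Fluorescence read every 10 min after 300 s agitation. Lag-time (h) taken as intersection of linear fits to initial stable and growth phases.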

[4] = cAMP induction in COS7 cells expressing hCTR2, average of a minimum of 3 determinations, read-out: hCTR2 EC50
[5] = cAMP induction in COS7 cells expressing hAMYR3, average of a minimum of 3 determinations, read-out: hAMY R3 EC50

| Structure (SMILES) | EC50 [1, 4] [nM] | EC50 [2, 5] [nM] | Fibrillation lag time (hours) pH 4.0 (Ac) [3] | Fibrillation lag time (hours) pH 7.0 (His) [3] | Fibrillation lag time (hours) pH 7.0 (Ph) [3] | EC50 [2] [nM] | EC50 [1] [nM] |
| --- | --- | --- | --- | --- | --- | --- | --- |
| CC[C@H](C)[C@@H](C(=O)N[C@@H](CC(C)C)C(=O)N[C@@H](CO)C(=O)N[C@@H](CO)C(=O)N[C@H](C(=O)N[C@@H](CCC(=O)O)C(=O)N[C@H](C(=O)NCC(=O)N[C@@H](CO)C(=O)N[C@@H](CCC(=O)O)C(=O)N[C@H](C(=O)N1CCC[C@H]1C(N)=O)[C@@H](C)O)C(C)C)[C@@H](C)O)N(C)C(=O)[C@H](C)NC(=O)CN(C)C(=O)[C@H](Cc1ccccc1)NC(=O)[C@H](CO)NC(=O)[C@H](CO)NC(=O)[C@H](CCCNC(=N)N)NC(=O)[C@H](Cc1c[nH]cn1)NC(=O)[C@H](CC(C)C)NC(=O)[C@H](Cc1ccccc1)NC(=O)[C@H](CCC(=O)O)NC(=O)[C@H](C)NC(=O)[C@H](CC(C)C)NC(=O)[C@H](CCCNC(=N)N)NC(=O)[C@H](CCC(=O)O)NC(=O)[C@@H](NC(=O)[C@H](C)NC(=O)[C@@H]1CSSC[C@H](NC(=O)[C@H](Cc2c[nH]c3ccccc23)NC(=O)CC[C@H](NC(=O)CCCCCCCCCCCCCCCCCCC(=O)O)C(=O)O)C(=O)NCC(=O)N[C@@H]([C@@H](C)O)C(=O)N[C@@H](C)C(=O)N[C@@H]([C@@H](C)O)C(=O)N1)[C@@H](C)O [Compound 161, [19CD]-isoGlu-WC()GTATC()ATERLAEFLHRSSF-Gly(Me)-A-Ile(Me)-LSSTEVGSETP-NH2] ({C20 diacid-γGlu}-WCGTATCATERLAEFLHRSSF[Sar]A[NMeI]LSSTEVGSETP-NH2; disulfide 2-7) | 0.084 | 0.19 | FND | FND | FND | – | – |
| CC[C@H](C)[C@@H](C(=O)N[C@@H](CC(C)C)C(=O)N[C@@H](CO)C(=O)N[C@@H](CO)C(=O)N[C@H](C(=O)N[C@@H](CC(N)=O)C(=O)N[C@H](C(=O)NCC(=O)N[C@@H](CO)C(=O)N[C@@H](CC(N)=O)C(=O)N[C@H](C(=O)N1CCC[C@H]1C(N)=O)[C@@H](C)O)C(C)C)[C@@H](C)O)N(C)C(=O)[C@H](C)NC(=O)CN(C)C(=O)[C@H](Cc1ccccc1)NC(=O)[C@H](CC(N)=O)NC(=O)[C@H](CC(N)=O)NC(=O)[C@H](CO)NC(=O)[C@H](CO)NC(=O)[C@H](Cc1c[nH]cn1)NC(=O)[C@H](Cc1c[nH]cn1)NC(=O)[C@H](CC(C)C)NC(=O)[C@H](Cc1ccccc1)NC(=O)[C@H](CCC(=O)O)NC(=O)[C@H](C)NC(=O)[C@H](CC(C)C)NC(=O)[C@H](CCCNC(=N)N)NC(=O)[C@H](CCC(N)=O)NC(=O)[C@@H](NC(=O)[C@H](C)NC(=O)[C@@H]1CSSC[C@H](NC(=O)[C@H](CCCNC(=N)N)NC(=O)CC[C@H](NC(=O)CCCCCCCCCCCCCCCCCCC(=O)O)C(=O)O)C(=O)N[C@@H](CC(N)=O)C(=O)N[C@@H]([C@@H](C)O)C(=O)N[C@@H](C)C(=O)N[C@@H]([C@@H](C)O)C(=O)N1)[C@@H](C)O [Compound 1, [19CD]-isoGlu-RC()NTATC()ATQRLAEFLHHSSNNF-Gly(Me)-A-Ile(Me)-LSSTNVGSNTP-NH2] ({C20 diacid-γGlu}-RCNTATCATQRLAEFLHHSSNNF[Sar]A[NMeI]LSSTNVGSNTP-NH2; disulfide 2-7) | – | – | FND^§§ | FND | FND | 0.21 | – |
| CC[C@H](C)[C@H](NC(=O)[C@@H]1CCCN1C(=O)CNC(=O)[C@H](Cc1ccccc1)NC(=O)[C@H](CC(N)=O)NC(=O)[C@H](CC(N)=O)NC(=O)[C@H](CO)NC(=O)[C@H](CO)NC(=O)[C@H](Cc1c[nH]cn1)NC(=O)[C@H](Cc1c[nH]cn1)NC(=O)[C@H](CC(C)C)NC(=O)[C@H](Cc1ccccc1)NC(=O)[C@H](CCC(=O)O)NC(=O)[C@H](C)NC(=O)[C@H](CC(C)C)NC(=O)[C@H](CCCNC(=N)N)NC(=O)[C@H](CCC(N)=O)NC(=O)[C@@H](NC(=O)[C@H](C)NC(=O)[C@@H]1CSSC[C@H](NC(=O)[C@H](CCCNC(=N)N)NC(=O)CC[C@H](NC(=O)CCCCCCCCCCCCCCCCCCC(=O)O)C(=O)O)C(=O)N[C@@H](CC(N)=O)C(=O)N[C@@H]([C@@H](C)O)C(=O)N[C@@H](C)C(=O)N[C@@H]([C@@H](C)O)C(=O)N1)[C@@H](C)O)C(=O)N[C@@H](CC(C)C)C(=O)N1CCC[C@H]1C(=O)N1CCC[C@H]1C(=O)N[C@H](C(=O)N[C@@H](CC(N)=O)C(=O)N[C@H](C(=O)NCC(=O)N[C@@H](CO)C(=O)N[C@@H](CC(N)=O)C(=O)N[C@H](C(=O)N1CCC[C@H]1C(N)=O)[C@@H](C)O)C(C)C)[C@@H](C)O [NN96, N-α-[(S)-4-carboxy-4-(19-carboxynonadecanoylamino)butyryl]-[Arg1,Glu14,His17,Pro37]-pramlintide, reference compound] ({C20 diacid-γGlu}-RCNTATCATQRLAEFLHHSSNNFGPILPPTNVGSNTP-NH2; disulfide 2-7) | 0.089 | – | – | – | – | 0.15 | – |
| CC[C@H](C)[C@@H](C(=O)N[C@@H](CC(C)C)C(=O)N1CCC[C@H]1C(=O)N1CCC[C@H]1C(=O)N[C@H](C(=O)N[C@@H](CC(N)=O)C(=O)N[C@H](C(=O)NCC(=O)N[C@@H](CO)C(=O)N[C@@H](CC(N)=O)C(=O)N[C@H](C(=O)N1CCC[C@H]1C(N)=O)[C@@H](C)O)C(C)C)[C@@H](C)O)N(C)C(=O)CN(C)C(=O)[C@H](Cc1ccccc1)NC(=O)[C@H](CC(N)=O)NC(=O)[C@H](CC(N)=O)NC(=O)[C@H](CO)NC(=O)[C@H](CO)NC(=O)[C@H](Cc1c[nH]cn1)NC(=O)[C@H](Cc1c[nH]cn1)NC(=O)[C@H](CC(C)C)NC(=O)[C@H](Cc1ccccc1)NC(=O)[C@H](CCC(=O)O)NC(=O)[C@H](C)NC(=O)[C@H](CC(C)C)NC(=O)[C@H](CCCNC(=N)N)NC(=O)[C@H](CCC(N)=O)NC(=O)[C@@H](NC(=O)[C@H](C)NC(=O)[C@@H]1CSSC[C@H](NC(=O)[C@H](CCCNC(=N)N)NC(=O)CC[C@H](NC(=O)CCCCCCCCCCCCCCCCCCC(=O)O)C(=O)O)C(=O)N[C@@H](CC(N)=O)C(=O)N[C@@H]([C@@H](C)O)C(=O)N[C@@H](C)C(=O)N[C@@H]([C@@H](C)O)C(=O)N1)[C@@H](C)O [Compound 176, [19CD]-isoGlu-RC()NTATC()ATQRLAEFLHHSSNNF-Gly(Me)-Ile(Me)-LPPTNVGSNTP-NH2] ({C20 diacid-γGlu}-RCNTATCATQRLAEFLHHSSNNF[Sar][NMeI]LPPTNVGSNTP-NH2; disulfide 2-7) | 0.12 | 0.17 | – | – | – | – | – |
| CC[C@H](C)[C@@H](C(=O)N[C@@H](CC(C)C)C(=O)N[C@@H](CO)C(=O)N[C@@H](CO)C(=O)N[C@H](C(=O)N[C@@H](CC(N)=O)C(=O)N[C@H](C(=O)NCC(=O)N[C@@H](CO)C(=O)N[C@@H](CC(N)=O)C(=O)N[C@H](C(=O)N1CCC[C@H]1C(N)=O)[C@@H](C)O)C(C)C)[C@@H](C)O)N(C)C(=O)[C@H](C)NC(=O)CN(C)C(=O)[C@H](Cc1ccccc1)NC(=O)[C@H](CC(N)=O)NC(=O)[C@H](CC(N)=O)NC(=O)[C@H](CO)NC(=O)[C@H](CO)NC(=O)[C@H](CCCNC(=N)N)NC(=O)[C@H](Cc1c[nH]cn1)NC(=O)[C@H](CC(C)C)NC(=O)[C@H](Cc1ccccc1)NC(=O)[C@H](CCC(=O)O)NC(=O)[C@H](C)NC(=O)[C@H](CC(C)C)NC(=O)[C@H](CCCNC(=N)N)NC(=O)[C@H](CCC(N)=O)NC(=O)[C@@H](NC(=O)[C@H](C)NC(=O)[C@@H]1CSSC[C@H](NC(=O)[C@H](CCCCN)NC(=O)[C@H](CCCCN)NC(=O)CC[C@H](NC(=O)CCCCCCCCCCCCCCCCCCC(=O)O)C(=O)O)C(=O)N[C@@H](CC(N)=O)C(=O)N[C@@H]([C@@H](C)O)C(=O)N[C@@H](C)C(=O)N[C@@H]([C@@H](C)O)C(=O)N1)[C@@H](C)O [Compound 87, [19CD]-isoGlu-KKC()NTATC()ATQRLAEFLHRSSNNF-Gly(Me)-A-Ile(Me)-LSSTNVGSNTP-NH2] ({C20 diacid-γGlu}-KKCNTATCATQRLAEFLHRSSNNF[Sar]A[NMeI]LSSTNVGSNTP-NH2; disulfide 3-8) | – | – | 78^‡ hours | FND | 50^‡‡ hours | – | 0.046 |
